Reference: the NIST ThermoML archive (doi:10.1016/j.jct.2012.08.024)
Numbers after ± are expanded uncertainties.

Conditions: 101.33 kPa, Liquid; for viscosity: Capillary tube (Ostwald / Ubbelohde) method; for mass density: Vibrating tube method

Compound | viscosity (298.15 K) [mPa·s] | viscosity (303.15 K) [mPa·s] | mass density (303.15 K) [kg/m3] | viscosity (308.15 K) [mPa·s] | viscosity (313.15 K) [mPa·s] | mass density (313.15 K) [kg/m3] | viscosity (318.15 K) [mPa·s] | viscosity (323.15 K) [mPa·s] | mass density (323.15 K) [kg/m3] | viscosity (328.15 K) [mPa·s] | mass density (298.15 K) [kg/m3] | mass density (308.15 K) [kg/m3] | mass density (318.15 K) [kg/m3] | mass density (328.15 K) [kg/m3]
OCCO [1,2-ethanediol] | 16.61 ± 0.23 | 13.58 ± 0.18 | 1106.38 ± 0.08 | 11.24 ± 0.15 | 9.404 ± 0.13 | 1099.31 ± 0.08 | 7.945 ± 0.11 | 6.774 ± 0.094 | 1092.16 ± 0.08 | 5.826 ± 0.081 | – | – | – | –
CCO [ethanol] | 1.087 ± 0.016 | 0.99 ± 0.02 | 780.75 ± 0.15 | 0.905 ± 0.013 | 0.829 ± 0.012 | 772.02 ± 0.15 | 0.761 ± 0.011 | 0.706 ± 0.01 | 763.11 ± 0.15 | 0.648 ± 0.009 | 785.07 ± 0.15 | 776.41 ± 0.15 | 767.59 ± 0.15 | 758.58 ± 0.16
